Data reported in PubChem BioAssay AID2060907 (Molecular Pharmacology Branch, DTP, NCI, 2025).

System: 388556-164-R-J1-PDC complex spheroid viability
Experiment: Anticancer human tumor 388556-164-R-J1-PDC patient-derived colon adenocarcinoma cell line growth inhibition [RAS]
Conditions: for IC50: curve of first compound; for viability, T/C: stronger effect = lower value
Method in brief: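 Multi-cell-type spheroids: tumor cells plus HUVEC endothelial cells and mesenchymal stem cells. RAS-pathway inhibitors were combined with targeted agents, each dosed in half-log steps down from clinical Cmax, or from 10 microM when Cmax was unknown.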
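Also: spheroids exposed to compound for 7 days before readout.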
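For viability, T/C in this document: 100% = DMSO vehicle control luminescence.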

CCC(CC)c1cc(NC2CCC(N)C2)n2nccc2n1 (centres undefined) + CCn1c(-c2cccnc2C(C)OC)c2c3cc(ccc31)N1CCOC(CC(NC(=O)C(C(C)C)N(C)C(=O)C3(F)CCN(C(=O)C#CC(C)(C)N(C)C)CC3)C(=O)N3CCCC(N3)C(=O)OCC(C)(C)C2)C1
IC50 (second compound 0.000949 µM): 4.85 µM | IC50 (second compound 0.003 µM): 4.46 µM | IC50 (second compound 0.00949 µM): 5.17 µM | IC50 (second compound 0.03 µM): 4.12 µM | IC50 (second compound 0.0949 µM): 4.76 µM | IC50 (second compound 0.3 µM): 2.94 µM | viability, T/C (second compound 0.000949 µM, first compound 0.0316 µM): 101% | viability, T/C (second compound 0.000949 µM, first compound 0.1 µM): 95.6% | viability, T/C (second compound 0.000949 µM, first compound 0.316 µM): 104% | viability, T/C (second compound 0.000949 µM, first compound 1 µM): 106% | viability, T/C (second compound 0.000949 µM, first compound 3.16 µM): 60.2% | viability, T/C (second compound 0.000949 µM, first compound 10 µM): 32.8% | viability, T/C (second compound 0.003 µM, first compound 0.0316 µM): 113% | viability, T/C (second compound 0.003 µM, first compound 0.1 µM): 105% | viability, T/C (second compound 0.003 µM, first compound 0.316 µM): 100% | viability, T/C (second compound 0.003 µM, first compound 1 µM): 104% | viability, T/C (second compound 0.003 µM, first compound 3.16 µM): 57.6% | viability, T/C (second compound 0.003 µM, first compound 10 µM): 31.9% | viability, T/C (second compound 0.00949 µM, first compound 0.0316 µM): 112% | viability, T/C (second compound 0.00949 µM, first compound 0.1 µM): 106% | viability, T/C (second compound 0.00949 µM, first compound 0.316 µM): 102% | viability, T/C (second compound 0.00949 µM, first compound 1 µM): 93.2% | viability, T/C (second compound 0.00949 µM, first compound 3.16 µM): 64% | viability, T/C (second compound 0.00949 µM, first compound 10 µM): 30.4% | viability, T/C (second compound 0.03 µM, first compound 0.0316 µM): 105% | viability, T/C (second compound 0.03 µM, first compound 0.1 µM): 102% | viability, T/C (second compound 0.03 µM, first compound 0.316 µM): 107% | viability, T/C (second compound 0.03 µM, first compound 1 µM): 106% | viability, T/C (second compound 0.03 µM, first compound 3.16 µM): 54.3% | viability, T/C (second compound 0.03 µM, first compound 10 µM): 35.6% | viability, T/C (second compound 0.0949 µM, first compound 0.0316 µM): 110% | viability, T/C (second compound 0.0949 µM, first compound 0.1 µM): 87.3% | viability, T/C (second compound 0.0949 µM, first compound 0.316 µM): 100% | viability, T/C (second compound 0.0949 µM, first compound 1 µM): 103% | viability, T/C (second compound 0.0949 µM, first compound 3.16 µM): 58.3% | viability, T/C (second compound 0.0949 µM, first compound 10 µM): 34.8% | viability, T/C (second compound 0.3 µM, first compound 0.0316 µM): 101% | viability, T/C (second compound 0.3 µM, first compound 0.1 µM): 89.9% | viability, T/C (second compound 0.3 µM, first compound 0.316 µM): 92.6% | viability, T/C (second compound 0.3 µM, first compound 1 µM): 91.6% | viability, T/C (second compound 0.3 µM, first compound 3.16 µM): 47.2% | viability, T/C (second compound 0.3 µM, first compound 10 µM): 34.4%

CC1(C)CCC(Nc2ncc(C(F)(F)F)c(-c3c[nH]c4c(P(C)(C)=O)c(C#N)ccc34)n2)CN1 (centres undefined) + CCn1c(-c2cc(N3CCN(C)CC3)cnc2C(C)OC)c2c3cc(ccc31)-c1csc(n1)CC(NC(=O)C1CC1C)C(=O)N1CCCC(N1)C(=O)OCC(C)(C)C2
IC50 (second compound 0.000949 µM): > 0.3 µM | IC50 (second compound 0.003 µM): > 0.3 µM | IC50 (second compound 0.00949 µM): > 0.3 µM | IC50 (second compound 0.03 µM): > 0.3 µM | IC50 (second compound 0.0949 µM): 0.00341 µM | IC50 (second compound 0.3 µM): < 0.000949 µM | viability, T/C (second compound 0.000949 µM, first compound 0.000949 µM): 104% | viability, T/C (second compound 0.000949 µM, first compound 0.003 µM): 87.9% | viability, T/C (second compound 0.000949 µM, first compound 0.00949 µM): 98.1% | viability, T/C (second compound 0.000949 µM, first compound 0.03 µM): 78.5% | viability, T/C (second compound 0.000949 µM, first compound 0.0949 µM): 83.8% | viability, T/C (second compound 0.000949 µM, first compound 0.3 µM): 84.9% | viability, T/C (second compound 0.003 µM, first compound 0.000949 µM): 101% | viability, T/C (second compound 0.003 µM, first compound 0.003 µM): 86.9% | viability, T/C (second compound 0.003 µM, first compound 0.00949 µM): 82.5% | viability, T/C (second compound 0.003 µM, first compound 0.03 µM): 86.8% | viability, T/C (second compound 0.003 µM, first compound 0.0949 µM): 85.3% | viability, T/C (second compound 0.003 µM, first compound 0.3 µM): 77.1% | viability, T/C (second compound 0.00949 µM, first compound 0.000949 µM): 84.2% | viability, T/C (second compound 0.00949 µM, first compound 0.003 µM): 73.3% | viability, T/C (second compound 0.00949 µM, first compound 0.00949 µM): 75.8% | viability, T/C (second compound 0.00949 µM, first compound 0.03 µM): 72.5% | viability, T/C (second compound 0.00949 µM, first compound 0.0949 µM): 74.6% | viability, T/C (second compound 0.00949 µM, first compound 0.3 µM): 68.9% | viability, T/C (second compound 0.03 µM, first compound 0.000949 µM): 77.4% | viability, T/C (second compound 0.03 µM, first compound 0.003 µM): 70% | viability, T/C (second compound 0.03 µM, first compound 0.00949 µM): 64.5% | viability, T/C (second compound 0.03 µM, first compound 0.03 µM): 67.9% | viability, T/C (second compound 0.03 µM, first compound 0.0949 µM): 71.6% | viability, T/C (second compound 0.03 µM, first compound 0.3 µM): 58.2% | viability, T/C (second compound 0.0949 µM, first compound 0.000949 µM): 55.5% | viability, T/C (second compound 0.0949 µM, first compound 0.003 µM): 47.1% | viability, T/C (second compound 0.0949 µM, first compound 0.00949 µM): 47.9% | viability, T/C (second compound 0.0949 µM, first compound 0.03 µM): 44.1% | viability, T/C (second compound 0.0949 µM, first compound 0.0949 µM): 48.8% | viability, T/C (second compound 0.0949 µM, first compound 0.3 µM): 46.1% | viability, T/C (second compound 0.3 µM, first compound 0.000949 µM): 33% | viability, T/C (second compound 0.3 µM, first compound 0.003 µM): 34.5% | viability, T/C (second compound 0.3 µM, first compound 0.00949 µM): 33.1% | viability, T/C (second compound 0.3 µM, first compound 0.03 µM): 35.9% | viability, T/C (second compound 0.3 µM, first compound 0.0949 µM): 41.5% | viability, T/C (second compound 0.3 µM, first compound 0.3 µM): 37.4%
